From ChEMBL document CHEMBL5291721, “A preclinical secondary pharmacology resource illuminates target-adverse drug reaction associations of marketed drugs” (Nat Commun, 2023)
*1 amine or outer side, *2 acyl side, *3 side chain or, on linkers, in order; H or OH if unused. Where a SMILES comes first, the peptide text is derived from it. Bridges are numbered along the chain shown (N, C = ends). [ ]: non-standard residue; d: D form. The star is where a group is joined. hTyr(3S-OH,4S-OH,3'-OSO3H) = N[C@H](C(=O)O)[C@H](O)[C@@H](O)c1ccc(O)c(OS(=O)(=O)O)c1; Orn(4R-OH,5R-OH) = O=C([C@H](C[C@@H](O)[C@@H](O)N[*:3])N[*:1])[*:2]; Pro(3S-OH,4S-Me) = C[C@H]1CN[C@H](C(=O)O)[C@H]1O; X1 = CCCCCOc1ccc(-c2cc(-c3ccc(C(=O)*)cc3)no2)cc1; Gln(3R-OH) = NC(=O)C[C@@H](O)[C@H](N)C(=O)O; Hyp = O=C(O)[C@@H]1C[C@@H](O)CN1

Key:
Progesterone receptor [1] = target: T1, Progesterone receptor (Homo sapiens, UniProt P06401)
T1 sequence (P06401 whole entry): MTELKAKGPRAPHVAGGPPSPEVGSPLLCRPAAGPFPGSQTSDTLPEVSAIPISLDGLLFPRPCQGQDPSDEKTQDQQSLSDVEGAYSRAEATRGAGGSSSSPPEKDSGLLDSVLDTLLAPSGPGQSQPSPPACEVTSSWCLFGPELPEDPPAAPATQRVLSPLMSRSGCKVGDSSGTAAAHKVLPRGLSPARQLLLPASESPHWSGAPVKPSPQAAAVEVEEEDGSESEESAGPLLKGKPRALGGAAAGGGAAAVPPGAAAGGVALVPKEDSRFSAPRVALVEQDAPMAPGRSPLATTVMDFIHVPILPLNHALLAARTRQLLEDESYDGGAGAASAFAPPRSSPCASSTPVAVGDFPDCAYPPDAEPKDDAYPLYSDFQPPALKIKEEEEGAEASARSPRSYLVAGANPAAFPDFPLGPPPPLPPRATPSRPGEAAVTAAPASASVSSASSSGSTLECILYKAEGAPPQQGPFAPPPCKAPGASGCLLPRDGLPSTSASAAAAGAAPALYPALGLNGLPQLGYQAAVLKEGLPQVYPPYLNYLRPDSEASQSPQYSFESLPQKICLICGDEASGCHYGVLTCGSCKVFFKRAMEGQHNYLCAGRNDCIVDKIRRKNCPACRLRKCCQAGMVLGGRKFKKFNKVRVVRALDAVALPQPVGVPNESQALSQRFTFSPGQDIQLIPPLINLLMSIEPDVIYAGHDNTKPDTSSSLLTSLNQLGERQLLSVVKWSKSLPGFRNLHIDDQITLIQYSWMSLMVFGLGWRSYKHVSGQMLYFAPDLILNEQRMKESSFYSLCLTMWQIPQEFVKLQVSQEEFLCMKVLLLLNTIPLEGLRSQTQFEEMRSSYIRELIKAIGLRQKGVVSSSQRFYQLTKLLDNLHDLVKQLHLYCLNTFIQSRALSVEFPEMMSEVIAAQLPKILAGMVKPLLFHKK

[2] = target: Vascular endothelial growth factor receptor 2 (Homo sapiens, UniProt P35968); type: functional
[3] = target: Gamma-aminobutyric acid receptor subunit alpha-1 (Rattus norvegicus, UniProt P62813)
Chain of Gamma-aminobutyric acid receptor subunit alpha-1 (P62813 whole entry): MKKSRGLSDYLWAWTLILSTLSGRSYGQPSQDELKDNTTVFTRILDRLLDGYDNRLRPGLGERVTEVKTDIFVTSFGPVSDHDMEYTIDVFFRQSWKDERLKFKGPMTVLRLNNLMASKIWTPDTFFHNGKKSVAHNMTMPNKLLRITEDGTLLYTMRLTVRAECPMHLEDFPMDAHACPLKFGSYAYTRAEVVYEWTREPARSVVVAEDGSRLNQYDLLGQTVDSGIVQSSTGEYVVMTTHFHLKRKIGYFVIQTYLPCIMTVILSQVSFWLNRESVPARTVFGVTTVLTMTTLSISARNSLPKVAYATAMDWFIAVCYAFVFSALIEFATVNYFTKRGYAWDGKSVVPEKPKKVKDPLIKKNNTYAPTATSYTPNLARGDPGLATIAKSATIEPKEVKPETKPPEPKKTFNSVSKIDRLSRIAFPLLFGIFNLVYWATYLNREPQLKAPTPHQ

[4] = target: Gamma-aminobutyric acid receptor subunit alpha-1/alpha-2/beta-2/gamma-2 (Homo sapiens, UniProt P14867+P18507+P47869+P47870); type: protein-complex assay
Chain of Gamma-aminobutyric acid receptor subunit alpha-1/alpha-2/beta-2/gamma-2 (P14867 whole entry): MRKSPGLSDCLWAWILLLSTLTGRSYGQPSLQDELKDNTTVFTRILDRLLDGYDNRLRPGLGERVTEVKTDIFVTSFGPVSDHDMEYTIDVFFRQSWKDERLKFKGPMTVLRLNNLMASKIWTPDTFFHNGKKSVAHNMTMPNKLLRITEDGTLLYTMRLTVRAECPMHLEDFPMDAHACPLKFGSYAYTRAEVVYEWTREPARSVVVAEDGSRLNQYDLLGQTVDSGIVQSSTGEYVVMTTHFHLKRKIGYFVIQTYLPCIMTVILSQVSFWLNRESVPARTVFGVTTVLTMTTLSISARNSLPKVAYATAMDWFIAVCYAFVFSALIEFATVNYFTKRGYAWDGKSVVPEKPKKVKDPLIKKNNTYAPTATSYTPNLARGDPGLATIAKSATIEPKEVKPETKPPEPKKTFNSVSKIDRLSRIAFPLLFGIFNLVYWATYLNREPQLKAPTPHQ
Chain of Gamma-aminobutyric acid receptor subunit alpha-1/alpha-2/beta-2/gamma-2 (P47870 whole entry): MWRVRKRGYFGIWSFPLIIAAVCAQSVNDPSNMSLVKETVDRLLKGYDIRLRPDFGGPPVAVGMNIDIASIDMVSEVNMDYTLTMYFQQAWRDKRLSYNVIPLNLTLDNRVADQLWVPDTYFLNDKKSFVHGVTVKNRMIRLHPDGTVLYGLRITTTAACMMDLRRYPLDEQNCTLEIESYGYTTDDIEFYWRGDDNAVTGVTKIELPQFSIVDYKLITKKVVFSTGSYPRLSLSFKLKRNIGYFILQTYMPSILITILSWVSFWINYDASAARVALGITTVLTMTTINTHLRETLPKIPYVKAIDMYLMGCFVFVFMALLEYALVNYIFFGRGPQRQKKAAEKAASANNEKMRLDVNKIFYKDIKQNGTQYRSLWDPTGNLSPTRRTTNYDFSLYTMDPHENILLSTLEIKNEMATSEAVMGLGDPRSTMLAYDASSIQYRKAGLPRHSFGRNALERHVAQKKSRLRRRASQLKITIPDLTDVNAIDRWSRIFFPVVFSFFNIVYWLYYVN
Chain of Gamma-aminobutyric acid receptor subunit alpha-1/alpha-2/beta-2/gamma-2 (P18507 whole entry): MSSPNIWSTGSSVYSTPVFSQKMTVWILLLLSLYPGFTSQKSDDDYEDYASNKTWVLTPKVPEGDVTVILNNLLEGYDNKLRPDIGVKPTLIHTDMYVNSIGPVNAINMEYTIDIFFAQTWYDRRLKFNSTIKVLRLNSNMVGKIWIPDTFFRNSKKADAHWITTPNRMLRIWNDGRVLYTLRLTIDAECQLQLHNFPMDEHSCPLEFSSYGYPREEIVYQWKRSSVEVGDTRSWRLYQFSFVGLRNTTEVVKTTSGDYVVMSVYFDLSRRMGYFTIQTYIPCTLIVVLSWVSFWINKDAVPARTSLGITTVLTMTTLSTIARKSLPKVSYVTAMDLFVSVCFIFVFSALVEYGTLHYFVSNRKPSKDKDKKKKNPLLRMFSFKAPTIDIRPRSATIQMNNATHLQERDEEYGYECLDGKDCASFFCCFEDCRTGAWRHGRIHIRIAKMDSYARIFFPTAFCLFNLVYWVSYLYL
Chain of Gamma-aminobutyric acid receptor subunit alpha-1/alpha-2/beta-2/gamma-2 (P47869 whole entry): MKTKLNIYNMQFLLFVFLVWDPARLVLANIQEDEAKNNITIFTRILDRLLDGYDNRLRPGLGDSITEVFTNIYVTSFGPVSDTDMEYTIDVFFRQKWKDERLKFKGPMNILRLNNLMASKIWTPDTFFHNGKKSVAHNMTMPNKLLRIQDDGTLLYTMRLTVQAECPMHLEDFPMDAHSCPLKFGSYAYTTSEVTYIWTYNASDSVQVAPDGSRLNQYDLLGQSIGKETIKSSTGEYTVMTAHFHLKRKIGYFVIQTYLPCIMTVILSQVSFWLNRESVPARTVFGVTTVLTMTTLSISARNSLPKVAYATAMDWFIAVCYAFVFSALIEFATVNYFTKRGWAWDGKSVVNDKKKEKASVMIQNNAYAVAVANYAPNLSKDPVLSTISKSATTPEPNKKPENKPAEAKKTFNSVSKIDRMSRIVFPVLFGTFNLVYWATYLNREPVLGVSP

[5] = target: T2, Cholecystokinin receptor type A (Homo sapiens, UniProt P32238)
T2 sequence (P32238 whole entry): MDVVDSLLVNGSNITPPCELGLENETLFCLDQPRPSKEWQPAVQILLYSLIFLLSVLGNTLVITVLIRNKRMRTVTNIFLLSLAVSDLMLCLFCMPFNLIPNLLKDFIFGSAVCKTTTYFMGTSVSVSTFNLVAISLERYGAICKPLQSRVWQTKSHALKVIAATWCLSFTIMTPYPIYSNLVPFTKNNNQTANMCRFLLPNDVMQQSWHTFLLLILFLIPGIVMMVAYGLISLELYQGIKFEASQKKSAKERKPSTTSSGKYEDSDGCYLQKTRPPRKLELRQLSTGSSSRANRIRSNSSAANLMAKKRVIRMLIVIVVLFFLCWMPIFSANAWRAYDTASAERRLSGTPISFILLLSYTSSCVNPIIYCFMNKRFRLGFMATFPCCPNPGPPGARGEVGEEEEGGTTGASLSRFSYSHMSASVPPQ

Progesterone receptor [6] = target: T1, Progesterone receptor; type: functional
[7] = target: Neuronal acetylcholine receptor subunit alpha-4 (Homo sapiens, UniProt P43681)
Chain of Neuronal acetylcholine receptor subunit alpha-4 (P43681 whole entry): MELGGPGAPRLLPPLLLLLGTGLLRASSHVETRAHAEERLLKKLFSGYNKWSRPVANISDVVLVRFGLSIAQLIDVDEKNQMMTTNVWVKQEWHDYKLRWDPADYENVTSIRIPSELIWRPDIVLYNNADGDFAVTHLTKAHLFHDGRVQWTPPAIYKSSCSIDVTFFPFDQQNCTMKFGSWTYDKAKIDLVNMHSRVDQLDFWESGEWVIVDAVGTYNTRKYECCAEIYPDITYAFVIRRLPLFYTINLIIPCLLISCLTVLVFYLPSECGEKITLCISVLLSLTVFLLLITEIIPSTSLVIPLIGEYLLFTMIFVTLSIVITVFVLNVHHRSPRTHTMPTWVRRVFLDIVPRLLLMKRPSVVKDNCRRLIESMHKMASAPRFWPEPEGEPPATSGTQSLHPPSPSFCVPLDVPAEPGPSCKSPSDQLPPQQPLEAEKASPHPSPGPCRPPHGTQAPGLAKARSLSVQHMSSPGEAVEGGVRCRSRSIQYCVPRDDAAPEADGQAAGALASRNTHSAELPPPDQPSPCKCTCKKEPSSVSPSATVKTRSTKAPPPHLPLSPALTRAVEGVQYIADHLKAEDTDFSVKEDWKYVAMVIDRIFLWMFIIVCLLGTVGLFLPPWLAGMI

[8] = target: Sodium-dependent dopamine transporter (Homo sapiens, UniProt Q01959)
Chain of Sodium-dependent dopamine transporter (Q01959 whole entry): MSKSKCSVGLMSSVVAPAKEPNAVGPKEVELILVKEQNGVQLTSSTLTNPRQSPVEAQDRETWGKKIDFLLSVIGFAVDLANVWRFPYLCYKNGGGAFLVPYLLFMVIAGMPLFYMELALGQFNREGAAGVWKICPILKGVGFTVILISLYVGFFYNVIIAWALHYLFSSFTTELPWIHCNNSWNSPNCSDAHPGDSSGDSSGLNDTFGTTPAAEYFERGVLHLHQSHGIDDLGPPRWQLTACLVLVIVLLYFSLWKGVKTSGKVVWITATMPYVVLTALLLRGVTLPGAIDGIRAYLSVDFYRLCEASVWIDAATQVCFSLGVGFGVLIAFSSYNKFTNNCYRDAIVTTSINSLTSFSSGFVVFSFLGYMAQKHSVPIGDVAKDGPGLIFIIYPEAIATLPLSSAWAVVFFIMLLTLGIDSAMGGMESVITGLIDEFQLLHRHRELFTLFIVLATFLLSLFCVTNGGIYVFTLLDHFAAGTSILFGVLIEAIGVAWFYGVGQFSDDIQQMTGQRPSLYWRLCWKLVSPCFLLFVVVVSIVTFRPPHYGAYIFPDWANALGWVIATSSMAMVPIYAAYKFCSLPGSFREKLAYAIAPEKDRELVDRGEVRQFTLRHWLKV

[9] = target: T3, Equilibrative nucleoside transporter 1 (Homo sapiens, UniProt Q99808)
T3 sequence (Q99808 whole entry): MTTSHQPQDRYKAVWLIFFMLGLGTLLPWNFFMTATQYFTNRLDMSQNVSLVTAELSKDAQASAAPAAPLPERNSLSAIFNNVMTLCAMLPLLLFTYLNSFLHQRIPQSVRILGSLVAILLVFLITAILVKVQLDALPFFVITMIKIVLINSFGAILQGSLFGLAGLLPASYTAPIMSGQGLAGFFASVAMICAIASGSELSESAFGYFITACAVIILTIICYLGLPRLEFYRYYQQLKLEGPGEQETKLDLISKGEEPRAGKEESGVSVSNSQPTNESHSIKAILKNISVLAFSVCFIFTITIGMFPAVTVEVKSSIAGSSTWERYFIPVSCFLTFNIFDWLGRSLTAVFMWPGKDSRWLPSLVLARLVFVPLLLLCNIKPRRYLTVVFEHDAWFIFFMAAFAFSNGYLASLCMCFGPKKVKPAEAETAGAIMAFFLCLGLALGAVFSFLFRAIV

[10] = target: 5-hydroxytryptamine receptor 2B (Homo sapiens, UniProt P41595); type: functional, cell-based
Chain of 5-hydroxytryptamine receptor 2B (P41595 whole entry): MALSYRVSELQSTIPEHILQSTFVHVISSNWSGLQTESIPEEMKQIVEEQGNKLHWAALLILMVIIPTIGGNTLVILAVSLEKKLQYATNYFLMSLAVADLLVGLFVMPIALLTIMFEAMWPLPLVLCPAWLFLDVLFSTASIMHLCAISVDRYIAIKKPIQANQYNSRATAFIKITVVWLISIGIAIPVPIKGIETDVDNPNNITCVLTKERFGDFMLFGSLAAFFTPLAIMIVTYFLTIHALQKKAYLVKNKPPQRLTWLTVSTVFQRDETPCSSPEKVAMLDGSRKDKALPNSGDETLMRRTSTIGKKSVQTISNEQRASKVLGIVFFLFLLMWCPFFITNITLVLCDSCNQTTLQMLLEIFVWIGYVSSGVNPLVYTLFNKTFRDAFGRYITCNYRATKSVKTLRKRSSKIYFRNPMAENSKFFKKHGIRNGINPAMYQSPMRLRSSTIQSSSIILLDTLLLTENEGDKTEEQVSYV

[11] = target: T4, Amine oxidase [flavin-containing] A (Homo sapiens, UniProt P21397); type: functional
T4 sequence (P21397 whole entry): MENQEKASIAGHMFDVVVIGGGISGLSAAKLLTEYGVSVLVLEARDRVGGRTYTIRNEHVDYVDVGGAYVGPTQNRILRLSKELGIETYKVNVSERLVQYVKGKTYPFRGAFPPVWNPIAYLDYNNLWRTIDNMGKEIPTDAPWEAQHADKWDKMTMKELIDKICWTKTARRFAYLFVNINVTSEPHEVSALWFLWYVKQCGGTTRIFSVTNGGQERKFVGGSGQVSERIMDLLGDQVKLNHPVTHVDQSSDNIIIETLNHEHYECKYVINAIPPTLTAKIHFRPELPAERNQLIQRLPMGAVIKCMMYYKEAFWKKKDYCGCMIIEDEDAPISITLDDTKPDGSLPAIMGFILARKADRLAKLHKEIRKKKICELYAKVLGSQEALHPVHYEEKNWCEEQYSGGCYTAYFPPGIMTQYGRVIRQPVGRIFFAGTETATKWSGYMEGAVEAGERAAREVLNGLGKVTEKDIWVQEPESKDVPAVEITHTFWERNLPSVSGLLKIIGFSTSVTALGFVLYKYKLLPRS
Also: assay procedure not described here.

Compound | AC50 (Progesterone receptor [1]) | AC50 [2] | AC50 [3] | AC50 [4] | further results
NC(=O)c1nc(F)c[nH]c1=O | > 30 µM | > 30 µM | > 30 µM |  | 
CN(C)CCCN1C(=O)c2cc([N+](=O)[O-])ccc2Oc2ccccc21 | > 30 µM | > 30 µM |  | > 30 µM | 
O=S(=O)(O)CCS [2-MERCAPTOETHANESULFONIC ACID] | > 30 µM | > 30 µM |  | > 30 µM | 
O=C(O)COc1nn(Cc2ccccc2)c2ccccc12 [BENDAZAC] | > 30 µM | > 30 µM |  | > 30 µM | 
Cc1ccc([C@@H]2O[C@H](CO)[C@@H](O)[C@H](O)[C@H]2O)cc1Cc1ccc(-c2ccc(F)cc2)s1 [CANAGLIFLOZIN ANHYDROUS] | > 30 µM | > 30 µM | > 30 µM |  | 
O=C(O)CCCc1ccc(N(CCCl)CCCl)cc1 [CHLORAMBUCIL] | > 30 µM | > 30 µM |  | 22.1 µM | 
CN(C)CCN(Cc1ccc(Cl)cc1)c1ccccn1 [CHLOROPYRAMINE] | > 30 µM | > 30 µM | > 30 µM |  | 
O=C(O)c1cc(=O)c2ccccc2o1 [CHROMOCARB] | > 30 µM | > 30 µM | > 30 µM |  | 
CN(CC(=O)O)C(=N)N [CREATINE] | > 30 µM | > 30 µM |  | > 30 µM | 
Cn1c(=O)c2c(ncn2CC(O)CO)n(C)c1=O (stereo unspecified) [DYPHYLLINE] | > 30 µM | > 30 µM |  | > 30 µM | 
C#Cc1cccc(Nc2ncnc3cc(OCCOC)c(OCCOC)cc23)c1 [ERLOTINIB] | > 30 µM |  |  | > 30 µM | AC50 [5]: 9.1 µM; AC50 (Progesterone receptor [6]): > 30 µM; AC50 [7]: > 30 µM; AC50 [8]: > 30 µM; AC50 [9]: 29 µM; AC50 [10]: > 30 µM; AC50 [11]: > 30 µM
C[C@]12CC[C@@H]3c4ccc(O)cc4CC[C@H]3[C@@H]1CC[C@@H]2OC(=O)CCC1CCCC1 [ESTRADIOL CYPIONATE] | 1.65 µM | > 30 µM | > 30 µM |  | 
CC1(C)O[C@@H]2C[C@H]3[C@@H]4CCC5=CC(=O)CC[C@]5(C)[C@@]4(F)[C@@H](O)C[C@]3(C)[C@]2(C(=O)CCl)O1 [HALCINONIDE] | 0.003 µM | > 30 µM | > 30 µM |  | 
C[C@]12CCC(=O)C=C1CC[C@@H]1[C@@H]2[C@@H](O)C[C@@]2(C)[C@H]1CC[C@]2(O)C(=O)COC(=O)CCC(=O)O [HYDROCORTISONE HEMISUCCINATE ANHYDROUS] | > 30 µM | > 30 µM | > 30 µM |  | 
N=C(N)NCc1cccc([123I])c1 [IOBENGUANE I 123] | > 30 µM | > 30 µM | > 30 µM |  | 
C=C1c2c(Cl)ccc(O)c2C(=O)C2=C(O)[C@]3(O)C(=O)C(C(N)=O)=C(O)[C@@H](N(C)C)[C@@H]3[C@@H](O)[C@H]12 [MECLOCYCLINE] | > 30 µM | > 30 µM | > 30 µM |  | 
Cc1cc2c(OCC(O)CNC(C)C)cccc2[nH]1 (stereo unspecified) [MEPINDOLOL] | > 30 µM | > 30 µM |  | > 30 µM | 
CCCCCOc1ccc(-c2cc(-c3ccc(C(=O)N[C@H]4C[C@@H](O)[C@@H](O)NC(=O)[C@@H]5[C@@H](O)[C@@H](C)CN5C(=O)[C@H]([C@H](O)CC(N)=O)NC(=O)[C@H]([C@H](O)[C@@H](O)c5ccc(O)c(OS(=O)(=O)O)c5)NC(=O)[C@@H]5C[C@@H](O)CN5C(=O)[C@H]([C@@H](C)O)NC4=O)cc3)no2)cc1 [MICAFUNGIN] (X1-[Orn(4R-OH,5R-OH)]T[Hyp][hTyr(3S-OH,4S-OH,3'-OSO3H)][Gln(3R-OH)][Pro(3S-OH,4S-Me)]; lactam 1-C) | 3.87 µM | > 30 µM | > 30 µM |  | 
CCOc1cc(N)c(Cl)cc1C(=O)NCC1CN(Cc2ccc(F)cc2)CCO1 (stereo unspecified) [MOSAPRIDE] | > 30 µM | > 30 µM |  | > 30 µM | 
CCOc1ccc2ccccc2c1C(=O)N[C@@H]1C(=O)N2[C@@H]1SC(C)(C)[C@@H]2C(=O)O [NAFCILLIN] | > 30 µM | > 30 µM |  | > 30 µM | 
CN1CCC[C@H]1c1cccnc1 [NICOTINE] | > 30 µM | > 30 µM |  | > 30 µM | 
C#C[C@]1(O)CC[C@H]2[C@@H]3CCC4=C(CCC(=O)C4)[C@H]3CC[C@@]21C [NORETHYNODREL] |  | > 30 µM | > 30 µM |  | 
CN(C)c1cc(CNCC(C)(C)C)c(O)c2c1C[C@H]1C[C@H]3[C@H](N(C)C)C(O)=C(C(N)=O)C(=O)[C@@]3(O)C(O)=C1C2=O [OMADACYCLINE] | > 30 µM |  | > 30 µM |  | AC50 [5]: > 30 µM; AC50 (Progesterone receptor [6]): > 30 µM; AC50 [7]: > 30 µM; AC50 [8]: > 30 µM; AC50 [9]: > 10 µM; AC50 [10]: > 30 µM; AC50 [11]: > 30 µM
CNC[C@H](O)c1cccc(O)c1 [PHENYLEPHRINE] | > 30 µM | > 30 µM | > 30 µM |  | AC50 [5]: > 30 µM; AC50 [7]: > 10 µM; AC50 [8]: > 10 µM; AC50 [9]: > 30 µM; AC50 [10]: > 30 µM; AC50 [11]: > 10 µM
CC(C)COc1ccc(CNC(=O)N(Cc2ccc(F)cc2)C2CCN(C)CC2)cc1 [PIMAVANSERIN] | > 30 µM | > 30 µM | > 30 µM |  | 
CC(C)(C)C(=O)NCCCC(=O)O [PIVAGABINE] |  | > 30 µM |  | > 30 µM | 
CNC(=O)c1cc(Oc2ccc(NC(=O)Nc3ccc(Cl)c(C(F)(F)F)c3)c(F)c2)ccn1 [REGORAFENIB] | > 3 µM |  | > 30 µM |  | AC50 (Progesterone receptor [6]): > 30 µM; AC50 [7]: > 30 µM; AC50 [8]: 6.33 µM; AC50 [11]: 9.05 µM
CC1(C)O[C@@H]2[C@@H](CO[C@@]3(COS(N)(=O)=O)OC(C)(C)O[C@@H]23)O1 [TOPIRAMATE] | > 30 µM |  | > 30 µM |  | AC50 [5]: > 30 µM; AC50 [7]: > 10 µM; AC50 [8]: > 10 µM; AC50 [9]: > 30 µM; AC50 [10]: > 10 µM; AC50 [11]: > 10 µM
NCCc1ccc(O)cc1 [TYRAMINE] | > 30 µM | > 30 µM | > 30 µM |  | 
